For 22 compounds, inhibition results are on record in patent US8435978B2, “Substituted sulfonamide compounds” (Gruenenthal GmbH, priority 2006, dated 2013).

Experiment [1] concerns the target T1, human B1R receptor (Homo sapiens, UniProt P46663).
T1 construct: host or cells: CHO K1 cells (Chinese hamster ovary), stably transfected
T1 sequence (P46663 1-353): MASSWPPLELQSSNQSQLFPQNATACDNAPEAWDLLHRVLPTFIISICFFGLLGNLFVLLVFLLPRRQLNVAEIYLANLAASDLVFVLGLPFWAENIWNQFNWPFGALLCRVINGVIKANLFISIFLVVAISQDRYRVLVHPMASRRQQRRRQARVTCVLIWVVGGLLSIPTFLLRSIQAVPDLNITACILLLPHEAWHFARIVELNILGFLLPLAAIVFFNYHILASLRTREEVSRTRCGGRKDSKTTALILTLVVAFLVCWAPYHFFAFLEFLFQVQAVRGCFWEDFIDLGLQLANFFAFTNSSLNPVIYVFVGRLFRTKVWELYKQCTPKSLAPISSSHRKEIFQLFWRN
The experiment in a line: Functional study on the bradykinin receptor 1 (B1R), FLIPR Ca2+ assay, hB1R cells. Conditions: CHO-K1, test substance 10 μM, agonist Lys-Des-Arg9-bradykinin 0.5 nM, % inhibition compared with the maximum achievable inhibition, read-out: B1R Antagonism, human [10 μM] % Inhibition. It is filed as cell-based. The gist of the method:
(§1)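 CHO K1 cells stably expressing human or rat B1R, Fluo-4-loaded; test compound 10 μM added first (activation % vs agonist), then after 10 min 0.5 nM Lys-Des-Arg9-bradykinin (human) or 100 nM Des-Arg9-bradykinin (rat). Ca2+ peak fluorescence by FLIPR; % inhibition relative to maximum achievable inhibition.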

Experiment [2] concerns the target T2, B1R receptor of the rat (Rattus norvegicus, UniProt P97583).
T2 construct: host or cells: CHO K1 cells (Chinese hamster ovary), stably transfected
T2 sequence (P97583 1-337): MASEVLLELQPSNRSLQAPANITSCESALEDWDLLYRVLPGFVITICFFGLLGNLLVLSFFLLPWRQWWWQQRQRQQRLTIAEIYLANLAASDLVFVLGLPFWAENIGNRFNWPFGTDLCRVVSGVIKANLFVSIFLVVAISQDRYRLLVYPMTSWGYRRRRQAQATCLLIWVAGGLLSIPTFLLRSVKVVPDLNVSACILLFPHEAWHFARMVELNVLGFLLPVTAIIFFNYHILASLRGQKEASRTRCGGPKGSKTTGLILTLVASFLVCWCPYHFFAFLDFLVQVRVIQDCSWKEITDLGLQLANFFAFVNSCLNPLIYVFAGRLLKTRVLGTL
The experiment in a line: Functional study on the bradykinin receptor 1 (B1R), FLIPR Ca2+ assay, rB1R cells. It is filed as cell-based. The note with it: CHO-K1, test substance 10 μM, agonist Des-Arg9-bradykinin 100 nM, % inhibition compared with the maximum achievable inhibition, read-out: B1R Antagonism, rat [10 μM] % Inhibition. The gist of the method:
as §1

Counter-ions that a name gives are not always drawn.

The inhibition is the drop in the measured response relative to a control, in per cent. Turning to `COc1cc(C)c(S(=O)(=O)N2CCCC2COCC(=O)N2CCN(Cc3ccc4c(c3)OCO4)CC2)c(C)c1` (centres unmarked) [Example 462, 1-(4-(benzo[d][1,3]dioxol-5-ylmethyl)piperazin-1-yl)-2-((1-(4-methoxy-2,6-dimethylphenylsulfonyl)pyrrolidin-2-yl)methoxy)ethanone], the inhibition at 10 µM in experiment [1] was determined as 101%; in experiment [2] it was 98.2%.
For `O=C(COCC1CCCCN1S(=O)(=O)c1c(Cl)cccc1Cl)N1CCN(CCO)CC1` (centres unmarked) [Example 552, 2-((1-(2,6-dichlorophenylsulfonyl)piperidin-2-yl)methoxy)-1-(4-(2-hydroxyethyl)piperazin-1-yl)ethanone] the same measures were 46.8% and 101%.
For `COc1ccc(-c2cc(NC(=O)COCC3CCCCN3S(=O)(=O)c3c(C)cc(OC)cc3C)n[nH]2)cc1` (centres unmarked) [Example 543, 2-((1-(4-methoxy-2,6-dimethylphenylsulfonyl)piperidin-2-yl)methoxy)-N-(5-(4-methoxyphenyl)-1H-pyrazol-3-yl)acetamide] the same measures were 21.1% and 105%.
Taken in the same sequence, the figures for `COc1cc(C)c(S(=O)(=O)N2CCC[C@@H]2COCC(=O)N2CCN(C3CCN(C)CC3)CC2)c(C)c1C` [Example 140, (R)-2-((1-(4-methoxy-2,3,6-trimethylphenylsulfonyl)pyrrolidin-2-yl)methoxy)-1-(4-(1-methylpiperidin-4-yl)piperazin-1-yl)ethanone dihydrochloride] were 100% and 80.7%.
With `CN(C)CCN1CCN(C(=O)COCC2CCCN2S(=O)(=O)c2c(Cl)cccc2Cl)CC1` (centres unmarked) [Example 452, 2-((1-(2,6-dichlorophenylsulfonyl)pyrrolidin-2-yl)methoxy)-1-(4-(2-(dimethylamino)ethyl)piperazin-1-yl)ethanone], the inhibition at 10 µM in experiment [1] was 105%; in experiment [2] it was 95.2%.
Taken in the same sequence, the figures for `COc1cc(C)c(S(=O)(=O)N2CCCC2COCC(=O)N2CCC(c3nc4cc(C)ccc4[nH]3)CC2)c(C)c1` (centres unmarked) [Example 474, 2-((1-(4-methoxy-2,6-dimethylphenylsulfonyl)pyrrolidin-2-yl)methoxy)-1-(4-(5-methyl-1H-benzo[d]imidazol-2-yl)piperidin-1-yl)ethanone] were 96.7% and 96.3%.
Taken in the same sequence, the figures for `CN(C)c1ccc(CNC(=O)COCC2CCCCN2S(=O)(=O)c2c(Cl)cc(Cl)cc2Cl)cc1` (centres unmarked) [Example 578, N-(4-(dimethylamino)benzyl)-2-((1-(2,4,6-trichlorophenylsulfonyl)piperidin-2-yl)methoxy)acetamide] were 8.96% and 87.1%.
As to `COc1cc(C)c(S(=O)(=O)N2CCCCC2COCC(=O)Nc2ccc3ccccc3n2)c(C)c1` (centres unmarked) [Example 546, 2-((1-(4-methoxy-2,6-dimethylphenylsulfonyl)piperidin-2-yl)methoxy)-N-(quinolin-2-yl)acetamide], the inhibition at 10 µM was found to be 7.44% in experiment [1] and 104% in experiment [2].
For `COc1cc(C)c(S(=O)(=O)N2CCCCC2COCC(=O)N2CCN(Cc3nc4ccccc4[nH]3)CC2)c(C)c1` (centres unmarked) [Example 117, 1-(4-((1H-benzo[d]imidazol-2-yl)methyl)piperazin-1-yl)-2-((1-(4-methoxy-2,6-dimethylphenylsulfonyl)piperidin-2-yl)methoxy)ethanone] the same measures were 101% and 101%.
For `COc1cc(C)c(S(=O)(=O)N2CCCC2COCC(=O)NCc2ccc(CN(C)C)cc2)c(C)c1` (centres unmarked) [Example 35, N-(4-dimethylaminomethyl-benzyl)-2-[1-(4-methoxy-2,6-dimethyl-phenylsulfonyl)-pyrrolidin-2-ylmethoxy]-acetamide] the same measures were 79.7% and 99%.
For `COc1cc(C)c(S(=O)(=O)N2CCCC2COCC(=O)N2CCN(Cc3c(C)cc(C)cc3C)CC2)c(C)c1` (centres unmarked) [Example 351, 2-((1-(4-methoxy-2,6-dimethylphenylsulfonyl)pyrrolidin-2-yl)methoxy)-1-(4-(2,4,6-trimethylbenzyl)piperazin-1-yl)ethanone] the same measures were 44% and 104%.
With `O=C(COCC1CCCN1S(=O)(=O)c1cc(Cl)sc1Cl)N1CCN(Cc2ccccc2)CC1` (centres unmarked) [Example 478, 1-(4-benzylpiperazin-1-yl)-2-((1-(2,5-dichlorothiophen-3-ylsulfonyl)pyrrolidin-2-yl)methoxy)ethanone], the inhibition at 10 µM was 36.2% in experiment [1] and 90.2% in experiment [2].
Taken in the same sequence, the figures for `COc1cc(C)c(S(=O)(=O)N2CCCCC2COCC(=O)Nc2cc(C)nc3ccccc23)c(C)c1` (centres unmarked) [Example 244, 2-((1-(4-methoxy-2,6-dimethylphenylsulfonyl)piperidin-2-yl)methoxy)-N-(2-methylquinolin-4-yl)acetamide] were 70.2% and 97.3%.
Taken in the same sequence, the figures for `COc1cc(C)c(S(=O)(=O)N2CCCC[C@@H]2COCC(=O)N2CCN(C3CCN(C)CC3)CC2)c(C)c1` [Example 177, (R)-2-((1-(4-methoxy-2,6-dimethylphenylsulfonyl)piperidin-2-yl)methoxy)-1-(4-(1-methylpiperidin-4-yl)piperazin-1-yl)ethanone dihydrochloride] were 104% and 100%.
`COc1cc(C)c(S(=O)(=O)N2CCCC2COCC(=O)N2CCC(c3ccncc3)C2)c(C)c1` (centres unmarked) [Example 273, 2-((1-(4-methoxy-2,6-dimethylphenylsulfonyl)pyrrolidin-2-yl)methoxy)-1-(3-(pyridin-4-yl)pyrrolidin-1-yl)ethanone]: the inhibition at 10 µM in experiment [1] amounted to 96%; in experiment [2] it was 84.9%.
For `O=C(COCC1CCCN1S(=O)(=O)c1c(Cl)cccc1Cl)N1CCN(Cc2ccc(Br)cc2)CC1` (centres unmarked) [Example 358, 1-(4-(4-bromobenzyl)piperazin-1-yl)-2-((1-(2,6-dichlorophenylsulfonyl)pyrrolidin-2-yl)methoxy)ethanone] the same measures were 101% and 103%.
With `O=C(COCC1CCCN1S(=O)(=O)c1c(Cl)cc(Cl)cc1Cl)NCc1ccc(N2CCCCC2)cc1` (centres unmarked) [Example 71, N-(4-piperidin-1-yl-benzyl)-2-[1-(2,4,6-trichloro-phenylsulfonyl)-pyrrolidin-2-yl-methoxy]-acetamide], the values for the inhibition at 10 µM in experiment [1] and in experiment [2] were 53.2% and 95.2%, respectively.
For `COc1cc(C)c(S(=O)(=O)N2CCCCC2COCC(=O)N2CCN(Cc3ccc(Br)cc3)CC2)c(C)c1` (centres unmarked) [Example 382, 1-(4-(4-bromobenzyl)piperazin-1-yl)-2-((1-(4-methoxy-2,6-dimethylphenylsulfonyl)piperidin-2-yl)methoxy)ethanone] the same measures were 103% and 101%.
Taken in the same sequence, the figures for `O=C(COCC1CCCN1S(=O)(=O)c1ccc(Cl)c(Cl)c1)N1CCN(Cc2ccc3c(c2)OCO3)CC1` (centres unmarked) [Example 44, 1-(4-benzo[1,3]dioxol-5-ylmethyl-piperazin-1-yl)-2-[1-(3,4-dichloro-phenylsulfonyl)-pyrrolidin-2-ylmethoxy]-ethanone] were 69.6% and 0%.
With `Cc1ccc(C)n1CCN1CCN(C(=O)COCC2CCCN2S(=O)(=O)c2c(Cl)cc(Cl)cc2Cl)CC1` (centres unmarked) [Example 332, 1-(4-(2-(2,5-dimethyl-1H-pyrrol-1-yl)ethyl)piperazin-1-yl)-2-((1-(2,4,6-trichlorophenylsulfonyl)pyrrolidin-2-yl)methoxy)ethanone], the inhibition at 10 µM in experiment [1] stood at 105%; in experiment [2] it was 101%.
On to `COc1cc(C)c(S(=O)(=O)N2CCCCC2COCC(=O)NCc2ccc(N3CCN(C)CC3)cc2)c(C)c1` (centres unmarked) [Example 434, 2-((1-(4-methoxy-2,6-dimethylphenylsulfonyl)piperidin-2-yl)methoxy)-N-(4-(4-methylpiperazin-1-yl)benzyl)acetamide], for which the inhibition at 10 µM stood at 104% in experiment [1] and 101% in experiment [2].
For `CN1CCC(N2CCN(C(=O)COCC3CCCCN3S(=O)(=O)c3ccc(Cl)c(C(F)(F)F)c3)CC2)CC1` (centres unmarked) [Example 115, 2-((1-(4-chloro-3-(trifluoromethyl)phenylsulfonyl)piperidin-2-yl)methoxy)-1-(4-(1-methylpiperidin-4-yl)piperazin-1-yl)ethanone] the same measures were 102% and 58.1%.
